Patent US12233161B1, “Lipids and lipid nanoparticle formulations” (LONGUIDE BIOPHARMA CORPORATION, priority 2024, dated 2025)

What was measured:
[1] = system: mice; assay: In vivo delivery of FLuc-mRNA lipid nanoparticles in mice, in vivo imaging (IVIS); details: for IVIS: Fluc-mRNA
Outline: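 Mice (n=3) received about 75 μL FLuc-mRNA LNP per mouse intramuscularly (rectus femoris), intravenously (tail vein), intraperitoneally or subcutaneously (back). After injection, D-luciferin (200 μL, 15 mg/mL) was given i.p. 10-15 min before IVIS imaging.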

[2] = Particle size and PDI of nucleic acid lipid nanoparticle preparations by dynamic light scattering; assay type: physicochemical
Procedure: The 7.5 μL nucleic acid lipid nanoparticle solution (containing approximately 0.04 mg/mL mRNA) was taken and added with 200 μL ultrapure water, mixed by gentle blowing using a pipette tip, and the particle size of the nanopreparation was detected by dynamic lightscattering (DLS) using a Malvern Dynamic Light Scattering Instrument (Malvern Instruments Ltd., ZEN3700, UK).
27.5 μL nucleic acid lipid nanoparticle solution (containing about 0.04 mg/mL mRNA) was taken and added with 200 μL ultrapure water. A pipette tip was used to gently blow the sample and mix well. The particle size of the nanopreparation was detected by Malvern Dynamic Light Scattering Instrument (Malvern Instruments Ltd., ZEN3700, UK). After the detection, the sample was recovered to an EP tube, and 600 μL of ultrapure water was added, gently blown with a pipette tip, and the potential of the nanopreparation was measured by a Malvern particle size meter.

[3] = IM, DMG-PEG2000:DSPC:Chol:compound 1.40:11.15:38.95:48.50, N/P 30
[4] = IV, body, DMG-PEG2000:DSPC:Chol:compound 1.40:11.15:38.95:48.50, N/P 30
[5] = IV, liver, DMG-PEG2000:DSPC:Chol:compound 1.40:11.15:38.95:48.50, N/P 30
[6] = IV, lung, DMG-PEG2000:DSPC:Chol:compound 1.40:11.15:38.95:48.50, N/P 30
[7] = IV, spleen, DMG-PEG2000:DSPC:Chol:compound 1.40:11.15:38.95:48.50, N/P 30
[8] = DMG-PEG2000:DSPC:Chol:compound 1.40:11.15:38.95:48.50, N/P 30
[9] = IM, DMG-PEG2000:DSPC:Chol:compound 1.40:11.15:38.95:48.50, N/P 20
[10] = IV, liver, DMG-PEG2000:DSPC:Chol:compound 1.40:11.15:38.95:48.50, N/P 20
[11] = IV, lung, DMG-PEG2000:DSPC:Chol:compound 1.40:11.15:38.95:48.50, N/P 20
[12] = IV, spleen, DMG-PEG2000:DSPC:Chol:compound 1.40:11.15:38.95:48.50, N/P 20
[13] = DMG-PEG2000:DSPC:Chol:compound 1.40:11.15:38.95:48.50, N/P 20
[14] = IV, organ not given, DMG-PEG2000:DSPC:Chol:compound 1.40:11.15:38.95:48.50, N/P 20

Row | Compound | IVIS [1, 3] | IVIS [1, 4] | % of organ targeting [1, 5] [%] | IVIS [1, 5] | % of organ targeting [1, 6] [%] | IVIS [1, 6] | % of organ targeting [1, 7] [%] | IVIS [1, 7] | PDI [2, 8] | Particle size (nm) [2, 8] [nm] | IVIS [1, 9] | PDI [2, 13] | Particle size (nm) [2, 13] [nm] | IVIS [1, 14] | other results
1 | CCCCCCC(CCCCCC)C(=O)OCCCCOC(=O)C(O)CN(CCN(C)CCN(CC(O)C(=O)OCCCCOC(=O)C(CCCCCC)CCCCCC)CC(O)C(=O)OCCCCOC(=O)C(CCCCCC)CCCCCC)CC(O)C(=O)OCCCCOC(=O)C(CCCCCC)CCCCCC (stereo not drawn) [Compound L0297] | 8.34E+07 | 1.64E+08 | 35.19 | 3.82E+07 | 13.24 | 1.44E+07 | 51.57 | 5.59E+07 | 0.13 | 119.00 |  |  |  |  | 
2 | CCCCCCCCC(CCCCCC)C(=O)OCCCCOC(=O)C(O)CN(CCN(C)CCN(CC(O)C(=O)OCCCCOC(=O)C(CCCCCC)CCCCCCCC)CC(O)C(=O)OCCCCOC(=O)C(CCCCCC)CCCCCCCC)CC(O)C(=O)OCCCCOC(=O)C(CCCCCC)CCCCCCCC (stereo not drawn) [Compound L0298] | 5.25E+07 | 1.30E+08 | 39.52 | 3.03E+07 | 5.53 | 4.23E+06 | 54.95 | 4.21E+07 | 0.11 | 91.43 |  |  |  |  | 
3 | CCCCCCCC/C=C\CCCCCCCCNC(=O)C(O)CN(CCN(C)CCN(CC(O)C(=O)NCCCCCCCC/C=C\CCCCCCCC)CC(O)C(=O)NCCCCCCCC/C=C\CCCCCCCC)CC(O)C(=O)NCCCCCCCC/C=C\CCCCCCCC (stereo not drawn) [Compound L0299] | 1.92E+06 | 1.55E+07 | 7.28 | 7.84E+05 | 41.60 | 4.48E+06 | 51.12 | 5.50E+06 | 0.16 | 91.76 |  |  |  |  | 
4 | CCCCCCCCCCCCNC(=O)C(O)CN(CCOCCOCCN(CC(O)C(=O)NCCCCCCCCCCCC)CC(O)C(=O)NCCCCCCCCCCCC)CC(O)C(=O)NCCCCCCCCCCCC (stereo not drawn) [Compound L0305] |  |  |  |  |  |  |  |  |  |  | 4.39E+04 | 0.18 | 109.93 |  | IVIS ([1]; IV, body, DMG-PEG2000:DSPC:Chol:compound 1.40:11.15:38.95:48.50, N/P 20): 8.12E+06; % of organ targeting [1, 10]: 35.21%; IVIS [1, 10]: 2.14E+06; % of organ targeting [1, 11]: 1.65%; IVIS [1, 11]: 1.00E+05; % of organ targeting [1, 12]: 63.14%; IVIS [1, 12]: 3.84E+06
5 | CCCCCCCCCCCCNC(=O)C(O)CN(CCOCCN(CC(O)C(=O)NCCCCCCCCCCCC)CC(O)C(=O)NCCCCCCCCCCCC)CC(O)C(=O)NCCCCCCCCCCCC (stereo not drawn) [Compound L0306] |  |  |  |  |  |  |  |  |  |  | 1.82E+06 | 0.14 | 84.96 | 7.90E+06 | 
6 | CCCCCCCCCCCCNC(=O)C(O)CN(CCCCCN(CC(O)C(=O)NCCCCCCCCCCCC)CC(O)C(=O)NCCCCCCCCCCCC)CC(O)C(=O)NCCCCCCCCCCCC (stereo not drawn) [Compound L0307] |  |  |  |  |  |  |  |  |  |  | 1.43E+05 | 0.25 | 178.57 | 4.29E+05 | 
